According to patent US8148391B2 (Cephalon, Inc., priority 2006, dated 2012):
Read-outs that look alike come from different tables or passages of the source. Each block holds one molecule with its values, some of them ahead of it.

Key:
[1] = target: T1, baculovirus-expressed ALK (Homo sapiens, UniProt Q9UM73); test: ALK Kinase Assay (ELISA-type, time-resolved fluorescence); assay type: biochemical
T1 construct: host or cells: baculovirus expression system
Procedure, shortened: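 Plates coated with phospholipase C-γ substrate (10 μg/mL in TBS); reaction started with 30 ng/ml ALK and run 15 min at 37° C. Phosphorylated substrate detected with Eu-N1-labeled PT66 antibody. IC50 from sigmoidal variable-slope fit of percent inhibition vs log concentration.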

[2] = target: T2, c-Met (cytoplasmic domain) (Homo sapiens, UniProt P08581); test: c-Met Kinase Assay (same methods as for ALK, with modifications); assay type: biochemical
T2 construct: 10 ng/mL c-Met (cytoplasmic domain, Invitrogen Corporation #PV3143); purchased Invitrogen Corporation PV3143
T2 sequence (P08581 956-1390 limits assumed): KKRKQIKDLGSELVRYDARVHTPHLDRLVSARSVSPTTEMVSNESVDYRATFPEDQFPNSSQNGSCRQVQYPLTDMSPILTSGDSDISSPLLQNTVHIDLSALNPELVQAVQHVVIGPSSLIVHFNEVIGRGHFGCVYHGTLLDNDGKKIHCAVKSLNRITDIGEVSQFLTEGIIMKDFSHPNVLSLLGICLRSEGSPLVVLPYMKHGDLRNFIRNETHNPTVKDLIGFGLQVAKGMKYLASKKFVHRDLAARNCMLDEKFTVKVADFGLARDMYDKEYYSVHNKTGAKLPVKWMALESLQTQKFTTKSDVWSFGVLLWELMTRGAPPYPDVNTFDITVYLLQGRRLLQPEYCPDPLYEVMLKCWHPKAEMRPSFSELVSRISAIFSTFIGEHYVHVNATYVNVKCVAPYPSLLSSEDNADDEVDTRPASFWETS
Procedure, shortened: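 Europium-labeled PT66 antibody (Eu-N1) detects substrate phosphorylation on wells coated with phospholipase C-γ at 10 μg/mL. The kinase, the cytoplasmic domain of c-Met at 10 ng/mL, starts the reaction, which proceeds 15 minutes at 37° C.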

[3] = ALK kinase inhibition, 1 μM ATP, read-out: ALK Activity
[4] = c-Met kinase inhibition, 1 μM ATP, read-out: cMet Activity
[5] = 1 μM ATP (Km level), 30 ng/ml ALK, 37° C., 15 minutes, read-out: ALK Activity (ALK kinase inhibition, IC50 class)
[6] = 1 μM ATP (Km level), 10 ng/mL c-Met, read-out: cMet Activity (c-Met kinase inhibition, IC50 class)
[7] = ALK kinase inhibition, 1 μM ATP (Km level), read-out: ALK Activity
[8] = c-Met kinase inhibition, 1 μM ATP (Km level), read-out: cMet Activity
[9] = 1 μM ATP (Km level), read-out: ALK Activity (ALK Kinase Inhibition, IC50)
[10] = 1 μM ATP (Km level), read-out: cMet Activity (c-Met Kinase Inhibition, IC50)

T1 sequence (Q9UM73 19-1620): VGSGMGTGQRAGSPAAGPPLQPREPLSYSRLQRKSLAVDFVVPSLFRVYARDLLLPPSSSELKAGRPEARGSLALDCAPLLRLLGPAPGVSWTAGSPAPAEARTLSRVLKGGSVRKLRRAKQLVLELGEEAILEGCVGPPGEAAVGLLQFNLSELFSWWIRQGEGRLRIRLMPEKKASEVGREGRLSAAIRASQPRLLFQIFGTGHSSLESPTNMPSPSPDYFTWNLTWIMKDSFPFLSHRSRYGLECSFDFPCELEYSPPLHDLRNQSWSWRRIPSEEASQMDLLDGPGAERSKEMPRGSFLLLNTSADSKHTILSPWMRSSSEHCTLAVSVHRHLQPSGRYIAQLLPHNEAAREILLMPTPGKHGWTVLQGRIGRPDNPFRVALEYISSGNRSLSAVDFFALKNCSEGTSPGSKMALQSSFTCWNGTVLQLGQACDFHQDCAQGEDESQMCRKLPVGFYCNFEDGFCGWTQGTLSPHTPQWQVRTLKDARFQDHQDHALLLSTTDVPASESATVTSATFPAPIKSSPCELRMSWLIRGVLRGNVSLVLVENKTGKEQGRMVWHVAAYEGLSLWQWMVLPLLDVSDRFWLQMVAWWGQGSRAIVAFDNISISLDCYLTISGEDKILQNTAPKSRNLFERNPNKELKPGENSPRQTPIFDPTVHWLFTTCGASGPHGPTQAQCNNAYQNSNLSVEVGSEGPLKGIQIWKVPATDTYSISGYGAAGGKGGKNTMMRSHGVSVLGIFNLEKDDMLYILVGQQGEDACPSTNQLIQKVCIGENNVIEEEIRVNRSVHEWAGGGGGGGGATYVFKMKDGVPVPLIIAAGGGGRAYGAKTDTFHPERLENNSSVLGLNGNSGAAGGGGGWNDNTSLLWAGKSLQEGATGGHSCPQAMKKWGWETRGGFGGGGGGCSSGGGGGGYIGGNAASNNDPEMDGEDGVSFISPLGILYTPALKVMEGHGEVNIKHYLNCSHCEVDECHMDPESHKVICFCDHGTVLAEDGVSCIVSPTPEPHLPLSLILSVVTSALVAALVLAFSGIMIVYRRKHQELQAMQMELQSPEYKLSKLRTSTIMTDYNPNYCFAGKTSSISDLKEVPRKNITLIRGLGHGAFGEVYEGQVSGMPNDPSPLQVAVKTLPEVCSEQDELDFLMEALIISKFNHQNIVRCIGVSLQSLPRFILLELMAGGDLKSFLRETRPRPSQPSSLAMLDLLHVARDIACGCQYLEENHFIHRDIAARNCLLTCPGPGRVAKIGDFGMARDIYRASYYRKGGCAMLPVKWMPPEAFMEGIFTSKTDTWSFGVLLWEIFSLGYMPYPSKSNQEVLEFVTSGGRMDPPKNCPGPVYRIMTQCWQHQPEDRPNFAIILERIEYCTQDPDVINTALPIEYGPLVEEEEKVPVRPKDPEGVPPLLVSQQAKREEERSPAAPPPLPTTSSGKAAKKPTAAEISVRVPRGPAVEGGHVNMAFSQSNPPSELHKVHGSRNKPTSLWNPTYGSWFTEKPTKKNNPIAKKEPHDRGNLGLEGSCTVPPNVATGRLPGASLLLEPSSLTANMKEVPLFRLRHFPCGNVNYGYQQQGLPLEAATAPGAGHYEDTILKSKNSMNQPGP

SMILES: COc1cc2c(cc1Nc1ncc(Cl)c(Nc3ccc(N4CCOCC4)cc3OC)n1)CCN(CCN1CCOCC1)CC2 [Example 1523, 5-Chloro-N(2)-[8-methoxy-3-(2-morpholin-4-yl-ethyl)-2,3,4,5-tetrahydro-1H-3-benzazepin-7-yl]-N(4)-(2-methoxy-4-morpholin-4-yl-phenyl)-pyrimidine-2,4-diamine]
IC50 [1, 3]: < 100 nM
IC50 [2, 4]: > 10000 nM

SMILES: CN1C(=O)CCCc2ccc(Nc3ncc(Cl)c(N[C@@H]4CCCC[C@H]4NS(C)(=O)=O)n3)cc21 [Example 109, N-{(1R,2R)-2-[5-Chloro-2-(1-methyl-2-oxo-2,3,4,5-tetrahydro-1H-benzo[b]azepin-8-ylamino)-pyrimidin-4-ylamino]-cyclohexyl}-methanesulfonamide]
IC50 [1, 7]: < 100 nM
IC50 [2, 8]: 1000 to 10000 nM

SMILES: CCN1C(=O)CCCc2ccc(Nc3ncc(Cl)c(Nc4ccccc4CCC#N)n3)cc21 [Example 1232, 3-{2-[5-Chloro-2-(1-ethyl-2-oxo-2,3,4,5-tetrahydro-1H-1-benzazepin-8-ylamino)-pyrimidin-4-ylamino]-phenyl}-propionitrile]
IC50 [1, 5]: 100 to 1000 nM
IC50 [2, 6]: 1000 to 10000 nM

SMILES: CCN1C(=O)C(N(C)C)CCc2c1ccc(Nc1ncc(Cl)c(Nc3ccccc3-n3cccn3)n1)c2OC (centres unmarked) [Example 1349, 7-[5-Chloro-4-(2-pyrazol-1-yl-phenylamino)-pyrimidin-2-ylamino]-3-dimethylamino-1-ethyl-6-methoxy-1,3,4,5-tetrahydro-benzo[b]azepin-2-one]
IC50 [1, 5]: < 100 nM
IC50 [2, 6]: > 10000 nM

SMILES: CNC(=O)c1cnn(C)c1Nc1nc(Nc2ccc3c(c2)CCOC(=O)N3C)ncc1Cl [Example 1776, 5-[5-Chloro-2-(5-methyl-6-oxo-5,6,8,9-tetrahydro-7-oxa-5-aza-benzocyclohepten-2-ylamino)-pyrimidin-4-ylamino]-1-methyl-1H-pyrazole-4-carboxylic acid methylamide]
IC50 [1, 3]: 1000 to 10000 nM
IC50 [2, 4]: 100 to 1000 nM

SMILES: CCN1CC(=O)Nc2cc(Nc3ncc(Cl)c(Nc4c(F)cccc4C(=O)NC)n3)ccc2C1 [Example 1863, 2-[5-Chloro-2-(4-ethyl-2-oxo-2,3,4,5-tetrahydro-1H-benzo[e][1,4]diazepin-8-ylamino)-pyrimidin-4-ylamino]-3-fluoro-N-methyl-benzamide]
IC50 [1, 3]: 100 to 1000 nM
IC50 [2, 4]: < 100 nM

SMILES: CNC(=O)c1cc(-c2cnn(C)c2)cc(F)c1Nc1nc(Nc2ccc3c(c2)OCCCN3C(=O)OC)ncc1Cl [Example 1434, 3-{5-Chloro-4-[2-fluoro-6-methylcarbamoyl-4-(1-methyl-1H-pyrazol-4-yl)-phenylamino]-pyrimidin-2-ylamino}-7,8-dihydro-6H-5-oxa-9-aza-benzocycloheptene-9-carboxylic acid methyl ester]
IC50 [1, 5]: < 100 nM
IC50 [2, 6]: < 100 nM

SMILES: CCN1C(=O)CCCc2c1ccc(Nc1ncc(Cl)c(NC3C4C=CC(C4)C3C(=O)N(C)C)n1)c2OC (stereo not drawn) [Example 602, (2-exo-3-exo)-3-[5-Chloro-2-(1-ethyl-6-methoxy-2-oxo-2,3,4,5-tetrahydro-1H-benzo[b]azepin-7-ylamino)-pyrimidin-4-ylamino]-bicyclo[2.2.1]hept-5-ene-2-carboxylic acid dimethylamide]
IC50 [1, 9]: 100 to 1000 nM
IC50 [2, 10]: > 10000 nM

SMILES: C#CCNC(=O)c1cccc(F)c1Nc1nc(Nc2ccc3c(c2)N(C(C)C)CCCC3(C)C)ncc1Cl [Example 1627, 2-[5-Chloro-2-(1-isopropyl-5,5-dimethyl-2,3,4,5-tetrahydro-1H-benzo[b]azepin-8-ylamino)-pyrimidin-4-ylamino]-3-fluoro-N-prop-2-ynyl-benzamide]
IC50 [1, 3]: 1000 to 10000 nM
IC50 [2, 4]: 1000 to 10000 nM

SMILES: COc1cc2c(cc1Nc1ncc(Cl)c(Nc3ccccc3S(=O)(=O)C(C)C)n1)CCN(CC(=O)N1CCN(C)CC1)CC2 [Example 1541, 2-(7-{5-Chloro-4-[2-(propane-2-sulfonyl)-phenylamino]-pyrimidin-2-ylamino}-8-methoxy-1,2,4,5-tetrahydro-3-benzazepin-3-yl)-1-(4-methyl-piperazin-1-yl)-ethanone]
IC50 [1, 3]: < 100 nM
IC50 [2, 4]: > 10000 nM

SMILES: CN1CCN(C[C@@H](O)C(F)(F)F)Cc2cc(OCC(F)(F)F)c(Nc3ncc(Cl)c(N[C@@H]4CCCC[C@H]4NS(C)(=O)=O)n3)cc21 [Example 498, N-((1R,2R)-2-{5-Chloro-2-[1-methyl-7-(2,2,2-trifluoro-ethoxy)-4-((R)-3,3,3-trifluoro-2-hydroxy-propyl)-2,3,4,5-tetrahydro-1H-benzo[e][1,4]diazepin-8-ylamino]-pyrimidin-4-ylamino}-cyclohexyl)-methanesulfonamide]
IC50 [1, 9]: 100 to 1000 nM
IC50 [2, 10]: > 10000 nM

SMILES: COc1c(Nc2ncc(Cl)c(Nc3ccccc3S(=O)(=O)N(C)C)n2)ccc2c1CCCC(N1CCOCC1)C2 (centres unmarked) [Example 944, 2-[5-Chloro-2-(1-methoxy-6-morpholin-4-yl-6,7,8,9-tetrahydro-5H-benzocyclohepten-2-ylamino)-pyrimidin-4-ylamino]-N,N-dimethyl-benzenesulfonamide]
IC50 [1, 9]: < 100 nM
IC50 [2, 10]: > 10000 nM

Second part, the molecule after the results:

IC50 [1, 5]: < 100 nM
IC50 [2, 6]: > 10000 nM
SMILES: COCCN1CCc2cc(Nc3ncc(Cl)c(Nc4ccccc4-n4cccn4)n3)c(OC)cc2CC1 [Example 1321, 5-Chloro-N*2*-[8-methoxy-3-(2-methoxy-ethyl)-2,3,4,5-tetrahydro-1H-benzo[d]azepin-7-yl]-N*4*-(2-pyrazol-1-yl-phenyl)-pyrimidine-2,4-diamine]

IC50 [1, 7]: 100 to 1000 nM
IC50 [2, 8]: 1000 to 10000 nM
SMILES: COCCN1CCc2ccc(Nc3ncc(Cl)c(N[C@@H]4CCCC[C@H]4N)n3)cc2CC1 [Example 451, N*4*-((1R,2R)-2-Amino-cyclohexyl)-5-chloro-N*2*-[3-(2-methoxy-ethyl)-2,3,4,5-tetrahydro-1H-benzo[d]azepin-7-yl]-pyrimidine-2,4-diamine]

IC50 [1, 5]: < 100 nM
IC50 [2, 6]: 1000 to 10000 nM
SMILES: COCCNC(=O)c1ccccc1Nc1nc(Nc2ccc3c(c2)CCN(CCOC)CC3)ncc1Cl [Example 1398, {5-Chloro-2-[3-(2-methoxy-ethyl)-2,3,4,5-tetrahydro-1H-benzo[d]azepin-7-ylamino]-pyrimidin-4-ylamino}-N-(2-methoxy-ethyl)-benzamide]

IC50 [1, 5]: 1000 to 10000 nM
IC50 [2, 6]: > 10000 nM
SMILES: COCCN1CCc2ccc(Nc3ncc(Cl)c(N[C@@H]4CCC[C@H](NS(C)(=O)=O)C4)n3)cc2CC1 (relative stereo) [Example 1380, rel-N-((1S,3R)-3-{5-Chloro-2-[3-(2-methoxy-ethyl)-2,3,4,5-tetrahydro-1H-benzo[d]azepin-7-ylamino]-pyrimidin-4-ylamino}-cyclohexyl)-methanesulfonamide]

IC50 [1, 7]: < 100 nM
IC50 [2, 8]: < 100 nM
SMILES: CCN1CCc2ccc(Nc3ncc(Cl)c(Nc4ccccc4C(=O)NC)n3)cc2CC1 [Example 31, 2-[5-Chloro-2-(3-ethyl-2,3,4,5-tetrahydro-1H-benzo[d]azepin-7-ylamino)-pyrimidin-4-ylamino]-N-methyl-benzamide]

IC50 [1, 5]: < 100 nM
IC50 [2, 6]: 100 to 1000 nM
SMILES: COCCN1CCc2ccc(Nc3ncc(Cl)c(Nc4c(F)cccc4C(N)=O)n3)cc2CC1 [Example 1257, 2-{5-Chloro-2-[3-(2-methoxy-ethyl)-2,3,4,5-tetrahydro-1H-3-benzazepin-7-ylamino]-pyrimidin-4-ylamino}-3-fluoro-benzamide]

IC50 [1, 7]: < 100 nM
IC50 [2, 8]: < 100 nM
SMILES: CNC(=O)c1ccccc1Nc1nc(Nc2ccc3c(c2)NCCN(C)C3=O)ncc1Cl [Example 412, 2-[5-Chloro-2-(4-methyl-5-oxo-2,3,4,5-tetrahydro-1H-benzo[e][1,4]diazepin-8-ylamino)-pyrimidin-4-ylamino]-N-methylbenzamide]
